Measured values from patent publication US5332739A, “Pyrimidinedione derivatives and antiarrhythmic agents containing same” (Mitsui Toatsu Chemicals, Incorporated, priority 1990, dated 1994).
Counter-ions that a name gives are not always drawn.

How the values were obtained:
[1] = Toxicity Test 1 (oral, mortality 24 hours after administration); settings: mouse, in vivo, 300 mg/kg (P.O), 2 to 4 mice per group, read-out: Mortality Rate (%)
Procedure: Each of the compounds prepared in the above-mentioned examples shown in Table B was administered into a mouse (ddy strain, male). In each case, the administration was effected by oral administration in a dose of 300 mg/kg.
A mortality rate (number of specimens: one group=2 to 4 mice) of the mice 24 hours after the administration was calculated, and the results are set forth in Table B.

[2] = tested on: Purkinje fiber of the right ventricular free wall; experiment: Influence on Myocardial Action Potential Duration Time (APD75); assay type: cell-based, hybrid adult dog; settings: Canis lupus familiaris, 20 min, 20 minutes' incubation, 1 Hz, 37° C.; for percent prolongation of action potential duration (APD75) at 1 µg/mL: Dose 1.0 (μg, ml); for percent prolongation of action potential duration (APD75) at 3 µg/mL: Dose 3.0 (μg, ml); for percent prolongation of action potential duration (APD75) at 10 µg/mL: Dose 10.0 (μg, ml); for percent prolongation of action potential duration (APD75) at 0.3 µg/mL: Dose 0.3 (μg, ml)
Procedure: To a hybrid adult dog, 30 mg/kg of pentobarbital was administered through a vein, and after being anesthetized, the heart was removed. Afterward, the right ventricular free wall of the heart was cut and taken out in a Tyrode solution.
The taken right ventricular free wall was fixed in an incubator at 37° C., and a nutritional solution (20 ml of the Tyrode solution) was refluxed.
In this isolated condition, myocardial action potential duration times (APD75) were measured before and after the administration of the respective compounds prepared in the above examples in Table A and d-sotalol as a control medicine, and APD75 (%) was calculated from the measured results in accordance with the formula: […]
A: APD75 before administration
B: APD75 after administration
Here, APD75 was measured as follows: A field stimulation of 1 Hz was given to the right ventricular free wall, and any variation of an action potential was depicted on an oscilloscope via a glass microelectrode (10 to 20 M.OMEGA.) thrust into a Purkinje fiber of the free wall and via an amplifier. Afterward, a waveform on the oscilloscope was analyzed by the use of a computer, and the time of from a point of the action potential generation to a point of 75% repolarization was measured. This measured time was regarded as the myocardial action potential duration time (APD75).
The compounds and d-sotalol shown in Table A were separately added to the refluxing nutritional solution (20 ml), and after 20 minutes' incubation, APD75 after the administration was calculated from the variation of the myocardial action potential duration time.
Incidentally, this test was carried out in accordance with a Sato et al's method [H. Sato, K. Hashimoto, Arzneimeittel Forschung, 34 (1), 3a, 376-380 (1984)].

[3] = tested on: ventricular muscle (right ventricle); experiment: Influence on Ventricular Muscle Refractory Period (ERP); assay type: in vivo, mongrel adult dog; settings: Canis lupus familiaris, iv, anesthetized dog, read-out: ERP (%; extensibility of refractory period); for change in vivo at 0.1 mg/kg: Dose 0.1 mg/kg i.v.; for change in vivo at 0.3 mg/kg: Dose 0.3 mg/kg i.v.; for change in vivo at 1 mg/kg: Dose 1.0 mg/kg i.v.; for change in vivo at 3 mg/kg: Dose 3.0 mg/kg i.v.
Procedure: Refractory periods were measured in the following manner before and after each of the compounds and d-sotalol shown an Table A was separately administered to a vein or a duodenum, and ERP (%; extensibility of refractory period) was calculated from the measured values in accordance with the following formula: […]
W: Refractory period after administration
Y: Refractory period before administration
To a mongrel adult dog, 30 mg/kg of pentobarbital was administered intravenously, and after being anesthetized, a pair of silver-silver chloride electrodes separated by 3 mm was sewn on an opened right ventricule, and electrical stimulation was given at an interval of 400 msec at a duration time of 4 msec under a current twice as much as the threshold. Afterward, a small amount of alcohol was injected into a sinus artery in order to extinguish a pacemaker activity, and the ventricular refractory period (ERP) was measured under ventricule pacing.
That is, 1 train comprised 10 stimulations, and an interval between two of the trains was usually 400 msec. At the time of the refractory period measurement, however, the above interval was shortened every 10 smec, and the interval between the trains at the time when reaction to the first stimulation of the train disappeared was regarded as the refractory period.
In this case, the electrical stimulation was fed in accordance with a program by a heart stimulation device (Diamedical Co., Ltd.; DHM-226-3).

Structure (SMILES) | mortality at 24 h [1] [%] | percent prolongation of action potential duration (APD75) at 1 µg/mL [2] [%] | percent prolongation of action potential duration (APD75) at 3 µg/mL [2] [%] | change in vivo at 0.1 mg/kg [3] [%] | change in vivo at 0.3 mg/kg [3] [%] | change in vivo at 1 mg/kg [3] [%] | change in vivo at 3 mg/kg [3] [%] | percent prolongation of action potential duration (APD75) at 10 µg/mL [2] [%] | percent prolongation of action potential duration (APD75) at 0.3 µg/mL [2] [%]
Cn1c(N2CCN(CCCOc3ccc(C(F)(F)F)cc3)CC2)cc(=O)n(C)c1=O [Compound 2] | 50 |  |  |  |  |  |  |  | 
CC(=O)c1ccc(OCCCN2CCN(c3cc(=O)n(C)c(=O)n3C)CC2)cc1 [Compound 4] | 0 | 5 | 8 |  |  |  |  |  | 
Cn1c(N2CCN(CCCOc3ccc(S(C)(=O)=O)cc3)CC2)cc(=O)n(C)c1=O [Compound 7] | 0 |  |  |  |  |  |  |  | 
CC(C)C(=O)c1ccccc1OCCCN1CCN(c2cc(=O)n(C)c(=O)n2C)CC1 [Compound 25] |  | 13 | 26 | 0 | 0 | 0 | 7.6 |  | 
Cn1c(N2CCN(CCCOc3ccccc3C(=O)CCc3ccccc3)CC2)cc(=O)n(C)c1=O [Compound 31] |  | 13 | 16 | 0 | 0 | 6.3 | 12.9 |  | 
Cn1c(N2CCN(CCCOc3ccccc3N=[N+]=[N-])CC2)cc(=O)n(C)c1=O [Compound 36] |  |  | 17 | 0 | 7.1 | 7.1 | 14.3 |  | 
Cn1c(N2CCN(CCCOc3ccc(Cl)cc3Cl)CC2)cc(=O)n(C)c1=O [Compound 43] |  |  | 13 | 0 | 0 | 7.7 | 19.3 | 18 | 
Cn1c(N2CCN(CCCOc3ccc(Cl)cc3S(C)(=O)=O)CC2)cc(=O)n(C)c1=O [Compound 50] |  | 6 | 15 | 0 | 5.6 | 5.6 | 11.1 | 26 | 
Cn1c(N2CCN(CCCOc3ccc(Cl)cc3C(=O)c3ccccc3)CC2)cc(=O)n(C)c1=O [Compound 51] |  | 19 | 24 | 0 | 6.3 | 6.3 | 12.5 |  | 11
Cn1c(N2CCN(CCOc3ccccc3)CC2)cc(=O)n(C)c1=O [Compound 65, 1,3-dimethyl-6-[4-(2-phenoxyethyl)piperazin-1-yl]-2,4(1H,3H)-pyrimidinedione.hydrochloride] |  |  | 14 | 0 | 0 | 0 | 0 | 17 | 
CC(=O)c1ccccc1CCN1CCN(c2cc(=O)n(C)c(=O)n2C)CC1 [Compound 85, 1,3-dimethyl-6-[4-(2-[2-acetylphenyl]ethyl)piperazin-1-yl]-2,4(1H,3H)-pyrimidinedione.oxalate] | 0 |  |  |  |  |  |  |  | 
Cn1c(N2CCN(CCc3ccccc3)CC2)cc(=O)n(C)c1=O [Compound 88, 1,3-dimethyl-6-[4-(2-phenylethyl)-piperazin-1-yl]-2,4(1H,3H)-pyrimidinedione.hydrochloride] |  |  | 26 | 2 | 6 | 11.7 |  | 49 | 
Cn1c(N2CCN(CCCc3ccccc3)CC2)cc(=O)n(C)c1=O [Compound 89, 1,3-dimethyl-6-[4-(3-phenylpropyl)piperazin-1-yl]-2,4(1H,3H)-pyrimidinedione.hydrochloride] |  | 15 | 26 | 0 | 5.7 | 9.7 | 14 | 31 | 
Cn1c(N2CCN(CCc3ccc(Cl)cc3)CC2)cc(=O)n(C)c1=O [Compound 91, 1,3-dimethyl-6-[4-(2-[4-chlorophenyl]-ethyl)piperazin-1-yl]-2,4(1H,3H)-pyrimidinedione.hydrochloride] |  | 13 | 25 | 3.5 | 6.5 | 14.5 |  |  | 
CSc1ccc(OCCCN2CCN(c3cc(=O)n(C)c(=O)n3C)CC2)cc1 [Compound 98, 1,3-dimethyl-6-[4-(3-[4-methylthiophenoxy]propyl)piperazin-1-yl]-2,4 (1H,3H)-pyrimidinedione.hydrochloride] |  | 4 | 13 | 0 | 0 | 7.7 | 15.4 | 25 | 
Cn1c(N2CCN(CCCOc3ccc(NS(C)(=O)=O)cc3Cl)CC2)cc(=O)n(C)c1=O [Compound 111, 1,3-dimethyl-6-[4-(3-[2-chloro-4-methanesulfonamidophenoxy]propyl)piperazin-1-yl]-2,4(1H,3H)-pyrimidinedione.hydrochloride] |  |  | 19 | 0 | 2.4 | 8.6 | 15.2 | 36 | 
CSc1ccc(OCCCN2CCN(c3cc(=O)n(C)c(=O)n3C)CC2)c(NS(C)(=O)=O)c1 [Compound 113, 1,3-dimethyl-6-[4-(3-[4-methylmercapto-2-methanesulfonamidophenoxy]propyl)piperazin-1-yl]-2,4(1H,3H)-pyrimidinedione.hydrochloride] |  | 2 | 17 | 0 | 0 |  | 17.6 | 26 | 
CCN(CCCOc1ccc(C(=O)c2ccccc2)cc1)CCNc1cc(=O)n(C)c(=O)n1C [Compound 117, 1,3-dimethyl-6-[2-(N-ethyl-3-[4-benzoylphenoxy]propylamino)ethylamino]-2,4(1H,3H)-pyrimidinedione.oxalate] |  | 17 | 23 | 3.2 | 3.2 | 6.9 | 16.1 |  | 
CC(C)NC[C@@H](O)c1ccc(NS(C)(=O)=O)cc1 [d-sotalol, reference compound] |  | 3 | 7.4 | 1.7 | 6.7 | 8.7 | 15.5 | 15.8 | 0
